Columns and labels:
[1] = system: Botrytis cinerea (ATCC 90479); assay: Adjuvancy: agar growth inhibition assay (colony diameter) with fungicide and/or adjuvant; type: cell-based; settings: for inherent fungicidal activity: adjuvant on its own, any of the concentrations tested
Source text: As a measure of the adjuvant activity in relation to the activity of the fungicide alone (e.g., pyraclostrobin) to B. cinerea a value of percent inhibition (adjuvant and fungicide) divided by percent inhibition (fungicide) can be defined, with higher values desired. A value of 1 would therefore represent equal activity of the adjuvant/fungicide combination to the fungicide alone, whereas a value above 1 would represent higher activity with the adjuvant/fungicide combination than the fungicide alone. The actives of the present invention may have a value greater than 1. Preferably greater than 1.5, most preferably greater than 2.
Percent Inhibition—The percent inhibition will be understood to represent the amount the fungicide and/or adjuvant that inhibits the visible growth of the microorganism after 48 hours incubation at 22° C. relative to vehicle treated controls. This is calculated using the following formula:
where: • ØC=diameter of the colony grown on agar supplemented with vehicle (i.e. vehicle treated control), and • ØT=diameter of the colony grown on agar supplemented with fungicide and/or adjuvant formulated in an appropriate vehicle (i.e. solvent such as water C2H5OH, CH3OH, CH3CN, DMSO).
Fold Change—The fold change is a measure of the adjuvant/fungicide combination in inhibiting a microorganism compared to the fungicide alone. This indicates how the adjuvant performs relative to the fungicide alone. This is calculated using the following formula:
where: • INHAF=percent inhibition of fungal growth when treated with fungicide and adjuvant, and • INHF=percent inhibition of fungal growth when treated with fungicide alone.
Botrytis cinerea (ATCC 90479) was cultured on Difco Potato Dextrose Agar (PDA) for 7 days with diurnal UV cycles (12 h UV light and 12 h dark). Spores were harvested in a buffered, sterile saline solution (w/v: 0.9% NaCl with 1% Tween 80) and counted using a haemocytometer. The spore suspension was adjusted to a final concentration of 8.5×10^6 spores/mL to create a standardised inoculum.
To prepare hyphal fragments for adjuvant testing, 8.5×10^4 spores were used to inoculate 10 mL of Difco Potato Dextrose Broth in a 150×25 mm tube. The tube was incubated at 220 RPM, 22° C. for 48 hours. To create hyphal fragments from the culture, the culture was transferred to a 50 mL plastic conical tube containing approximately 20 sterile 5 mm diameter glass beads and vortexed for 5 min. After vortexing the tube was allowed to stand for 5 min to allow large mycelial clumps to settle and then the top layer containing hyphal fragments was removed and used as inocula for growth inhibition assays.
Fungicides and adjuvants were dissolved in methanol and added to molten PDA (˜50° C.) and then the agar was distributed in the wells of 12 well multiwell plates (1 mL/well). The plates were cooled to room temperature and 10 μL of hyphal inoculum was added to the centre of each well. The plates were incubated at 22° C. for 48 hours and then the colony diameter was measured using a digital caliper. The biological growth control consisted of hyphae and vehicle (0.07% methanol), the negative control was media and vehicle (0.07% methanol).
The effect of the adjuvants on fungicidal activity is represented as fold increase in growth inhibition. A value of 1 indicates no increase in fungicidal activity. A value less than 1 indicates reduced fungicidal activity and a value greater than 1 indicates increased fungicidal activity.

[2] = system: African green monkey Vero kidney cells (ATCC CCL-81); assay: Cytotoxicity, alamarBlue cell viability; type: cell-based; settings: highest concentration tested (128 μg/mL); 24 hours
Procedure: The cytotoxicity of the diketopiperazines was assessed in vitro against African green monkey Vero kidney cells (ATCC CCL-81). Cells were cultured in 15 mL of Eagle's minimal essential medium (Sigma) supplemented with 10% (v/v) fetal bovine serum (VWR), […] penicillin and 0.1 mg/mL streptomycin in T75 cm^2 cell culture flasks. Cells were incubated for 24 hours at 37° C. in a humidified atmosphere of 5% CO2. Culture medium was refreshed every 2-3 days and cells were not allowed to exceed 80% confluency. At 80% confluency the cells were counted, diluted and plated into 96 well flat bottom cell culture plates (Corning) at a cell density of 10,000 cells per well in 90 μL of growth medium. The plates were incubated at 37° C. in a humidified atmosphere of 5% CO2 for 24 hours to allow cells to adhere to the plate before treatment. After 24 hours, adjuvants were solubilised in DMSO, serially diluted and added to the wells at final concentrations ranging from 1 μg/mL to 128 μg/mL. DMSO was used as the vehicle at a final concentration of 1% in the wells. The plates were incubated at 37° C. in a humidified atmosphere of 5% CO2 for 24 hours after which alamarBlue (Invitrogen) was added to each well at 10% of the culture volume. Fluorescence was monitored using a Thermo Scientific Varioskan Flash plate reader at 560/12 excitation, 590 nm emission both at time zero and 4 hrs after alamarBlue addition. After subtracting the time zero emission 590 nm measurement from the final reading, the inferred percentage of cell viability relative to the vehicle control wells was calculated.

[3] = system: butterhead lettuce leaves; assay: Phytotoxicity on leaves, necrosis score; type: in vivo; settings: scale 0 (no necrosis) to 3 (extended necrosis)
Procedure: (§1) Phytotoxicity of the diketopiperazines was assessed on soybean and butterhead lettuce leaves. Soybean seeds were inoculated with Bradyrhizobium japnicum and sown in Levington's M3 compost in 9 cm^2 plastic pots. Soybean plants were given supplementary lighting with SON-T bulbs. Biological control was used to prevent thrip damage (Biolone—Amblyseius cucumeris). The glasshouse temperatures were set to maintain 22° C.±2 during the day and 19° C.±2 at night. Lettuce plants were grown in the same manner without rhizobacteria inoculation. Supplementary lighting was provided by LED bulbs. All plants were maintained as well watered and grown for fourteen days. Test compounds/extracts were resuspended in 2% DMSO ([…]). Synperonic Al1 LQ was used a positive control and UEP-100 as a negative control. Treatments were applied as six 10 μL droplets on the leaf's surface. Phytotoxic tissue damage was assessed 1- and 7-days post-treatment and on a scale of 0 to 3. The phytotoxic effect of the compounds/extract at 1 g/L is represented as a mean phytotoxic necrosis score, where 0=no necrosis; 1=slight spot-like necrosis of the inoculation site; 2=ring-shaped necrosis; 3=extended necrosis.

soybean leaves = assay: Phytotoxicity on leaves, necrosis score; type: in vivo; settings: Soy, 1 g/L, scale 0 (no necrosis) to 3 (extended necrosis)
Procedure: as §1

[4] = Pyra 0.0156 μg/mL, adjuvant 128 μg/mL, vs pyraclostrobin alone, 48 h, 22° C.
[5] = Pyra 0.0313 μg/mL, adjuvant 128 μg/mL, vs pyraclostrobin alone, 48 h, 22° C.
[6] = Pyra 0.0625 μg/mL, adjuvant 128 μg/mL, vs pyraclostrobin alone, 48 h, 22° C.

SMILES	Fold Change in Growth Inhibition [1, 4]	Fold Change in Growth Inhibition [1, 5]	Fold Change in Growth Inhibition [1, 6]	Fold Change in Growth Inhibition ([1]; Teb 0.095 μg/mL, adjuvant 25 μg/mL, vs tebuconazole alone)	Fold Change in Growth Inhibition ([1]; Teb 0.095 μg/mL, adjuvant 50 μg/mL, vs tebuconazole alone)	Fold Change in Growth Inhibition ([1]; Teb 0.095 μg/mL, adjuvant 100 μg/mL, vs tebuconazole alone)	Fold Change in Growth Inhibition ([1]; Teb 0.19 μg/mL, adjuvant 25 μg/mL, vs tebuconazole alone)	Fold Change in Growth Inhibition ([1]; Teb 0.19 μg/mL, adjuvant 50 μg/mL, vs tebuconazole alone)	Fold Change in Growth Inhibition ([1]; Teb 0.19 μg/mL, adjuvant 100 μg/mL, vs tebuconazole alone)	inherent fungicidal activity [1]	cytotoxicity against Vero cells [2]	Mean Score (phytotoxic necrosis) ([3]; Day 1, 1 g/L)	Mean Score (phytotoxic necrosis) ([3]; Day 7, 1 g/L)	Mean Score (phytotoxic necrosis) ([3]; Day 7, 1 g/L, listed as DKP (1a))	Mean Score (phytotoxic necrosis) (soybean leaves; Day 1)	Mean Score (phytotoxic necrosis) (soybean leaves; Day 7)	Mean Score (phytotoxic necrosis) (soybean leaves; Day 7, listed as DKP (1a))
CN1C(=O)[C@@H]2CCCN2C(=O)/C1=C/c1ccccc1 [DKP (Ia)]	2.18	3.31	1.87	1.97	1.78	2.00	4.39	1.78	2.76	did not demonstrate any inherent fungicidal activity	did not exhibit any cytotoxicity	0	did not exhibit any phytotoxicity	0	0	did not exhibit any phytotoxicity	0
CN1C(=O)[C@@H]2CCCN2C(=O)/C1=C\c1ccccc1 [DKP (Ib)]										did not demonstrate any inherent fungicidal activity	did not exhibit any cytotoxicity						
O=C1N/C(=C\c2ccccc2)C(=O)N2CCC[C@@H]12 [DKP (Ic)]	1.52	3.14	1.48							did not demonstrate any inherent fungicidal activity	did not exhibit any cytotoxicity						
O=C1N/C(=C/c2ccccc2)C(=O)N2CCC[C@@H]12 [DKP (Id)]										did not demonstrate any inherent fungicidal activity	did not exhibit any cytotoxicity						
